Results on one compound are retold here after publication PMC7411887, “New Paracyclophanylthiazoles with Anti-Leukemia Activity: Design, Synthesis, Molecular Docking, and Mechanistic Studies” (Molecules, 2020).

As a reminder, the LC50 is the concentration lethal to half of the exposed cells or organisms. A lower LC50 goes with greater toxicity.

What all share (assay): NCI five-dose assay
Type in all cases: cell-based

One experiment deals with NCI/ADR-RES. Conditions: Homo sapiens, Ovarian Cancer NCI/ADR-RES.
Another experiment concerns HCC-2998. Particulars: Colon Cancer HCC-2998.
In the next experiment the test system is CAKI-1. Conditions: Renal Cancer CAKI-1.
Another experiment concerns DU-145. Conditions: Homo sapiens, Prostate Cancer DU-145.
Setting [1] is: read-out: GI50 Concentration/Cell Line.
The mark [2] stands for this setting: Homo sapiens, read-out: GI50 Concentration/Cell Line.

In the case of `COC(=O)C=C1SC(=NNC(=O)c2cc3ccc2CCc2ccc(cc2)CC3)N(c2ccccc2)C1=O` [Compound 3a], the median lethal concentration (LC50) is more than 100 µM in the experiment with NCI/ADR-RES, 6.68 µM in the experiment with HCC-2998 (Homo sapiens) and more than 100 µM with DU-145. Also, the GI50 in the experiment on NCI/ADR-RES (setting [1]) amounted to 2.92 µM; in the experiment on HCC-2998 (setting [2]), 1.78 µM; in the experiment with CAKI-1 (setting [2]), 1.52 µM; in the experiment with DU-145 (setting [1]), 5.11 µM. Further, the “TGI Concentration/Cell Line” value in the experiment with HCC-2998 came to 3.45 µM; in the experiment with CAKI-1, 3.00 µM. Further, the CC50 with CAKI-1 (Homo sapiens, read-out: LC50 (the source's name)) turned out to be 9.78 µM.
